{"source": "patent US20260335331A1", "about": "“ORAL FORMULATION OF DIAMINOPHENOTHIAZINES AND METHODS OF MAKING AND USING THE SAME IN THE TREATMENT AND/OR PREVENTION OF DISEASES” (priority 2022, published 2026)", "origin": "cited, not measured here", "tested_on": "Macrorhabdus ornithogaster", "conditions": "background statement"}
{"smiles": "C[C@@H]1[C@H](O)[C@@H](C)/C=C/C=C/C=C/C=C/C=C/C=C/C=C/[C@H](O[C@@H]2O[C@H](C)[C@@H](O)[C@H](N)[C@@H]2O)C[C@@H]2O[C@](O)(C[C@@H](O)C[C@@H](O)[C@H](O)CC[C@@H](O)C[C@@H](O)CC(=O)O[C@H]1C)C[C@H](O)[C@H]2C(=O)O", "note": "[amphotericin B]", "values": [{"measurement": "success in treatment of avian megalobacteriosis", "result": "Some success has been observed"}]}
